Source: patent publication US20230021562A1, “[…] D[…]-1 INHIBITORS” (priority 2019, published 2023)
Values joined by “and” are separate entries in the source; they are usually repeats but may differ in a detail not shown here. Identical values can stand only once. Like-named read-outs stand apart in the source and are kept apart here.

How the values were obtained:
[1] = target: Myeloid Cell Leukemia 1 (Mcl-1) (Homo sapiens, UniProt Q07820); experiment: biochemical; assay type: binding; settings: HTRF Ki (nM)
Chain of Myeloid Cell Leukemia 1 (Mcl-1) (Q07820 whole entry): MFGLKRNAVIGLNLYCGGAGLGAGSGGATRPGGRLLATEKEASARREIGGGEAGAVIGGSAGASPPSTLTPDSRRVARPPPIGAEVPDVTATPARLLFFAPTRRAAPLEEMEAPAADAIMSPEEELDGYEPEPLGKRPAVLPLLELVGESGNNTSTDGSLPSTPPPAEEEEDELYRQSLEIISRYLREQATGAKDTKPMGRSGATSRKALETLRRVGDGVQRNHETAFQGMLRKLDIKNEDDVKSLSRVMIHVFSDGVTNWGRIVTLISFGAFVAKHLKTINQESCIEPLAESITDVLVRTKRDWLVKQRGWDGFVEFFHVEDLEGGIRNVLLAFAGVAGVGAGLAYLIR

MOLP8 cell line = experiment: MOLP8 CellEvent Caspase-3/7 Green live-cell IncuCyte apoptosis assay; assay type: cell-based, human; settings: averaged values
Protocol: (§1) MCL-1 is a regulator of apoptosis and is highly over-expressed in tumor cells that escape cell death. The assay evaluates the cellular potency of small-molecule compounds targeting regulators of the apoptosis pathway, primarily MCL-1, Bfl-1, Bcl-2, and other proteins of the Bcl-2 family. Protein-protein inhibitors disrupting the interaction of anti-apoptotic regulators with BH3-domain proteins initiate apoptosis.
Activation of the apoptotic pathway was measured using the CellEvent™ Caspase-3/7 Green ReadyProbes™ Reagent (Thermo Fisher C10423, C10723). This assay produces a green fluorescent stain in cells that enter the apoptosis pathway. CellEvent® Caspase-3/7 Green reagent is a four amino acid peptide (DEVD) conjugated to a nucleic acid-binding dye that is non-fluorescent when not bound to DNA. The CellEvent® Caspase-3/7 Green reagent is intrinsically non-fluorescent, as the DEVD peptide inhibits binding of the dye to DNA. Upon activation of caspase-3/7 in apoptotic cells, the DEVD peptide is cleaved and the free dye can bind DNA, generating a bright green fluorescence. The activation of Caspase-3 and Caspase-7 is downstream of inhibition of MCL-1 or other apoptosis inhibiting proteins in cell lines that are dependent on them.
The live-cell readout on the IncuCyte permits tracking over time of the Caspase activation. […] The IncuCyte readout also allows one to normalize for cell number, as the suspension cells are hard to distribute evenly.
Signals were measured every 2 h for a duration of 22 h. The ratio of the Caspase mask to the Confluence mask, per image, as raw data, was calculated and the kinetic trace for every well was exported to Genedata Screener for analysis.
In Genedata Screener values for 6 h, 12 h, and 22 h from the kinetic traces were extracted. The values were normalized against negative controls (untreated cells). A standard dose-response analysis was performed on the normalized data.
The following data was reported at each of the following three aforementioned time points: (a) The dose-response curve, (b) The qAC50 and qAC50 Mode, and (c) Max Activity.
Cells were maintained in culture medium containing 10% Heat Inactivated (HI) FBS, 2 mM L-Glutamine and 50 μg/mL Gentamycin phenol red free RPMI-1640. Cells were split at 0.4 million/mL twice a week.
On Day 1, plates containing individual wells with test compounds at 10 mM concentration, 150 nL per well. The final concentrations range from […] compound (and no compound control) and compounds were thawed at room temperature for 1 hour. 25 μl of prewarmed medium was added into each well by multidrop (column 1, 3-22, 24), followed by addition of DMSO control (0.6% DMSO) in column 2. The plate was sealed using Breathe-Easy® sealing membrane and shaken for 30 min at room temperature to dissolve the test compound(s) in medium. The plate was then kept in the incubator for 1 hour at 37° C., 5% CO2.
MOLP8 cells in medium at […] (20000/50 μl final in assay) were prepared with CellEvent™ Caspase-3/7 Green Detection Reagent at 4 μM (2 μM final in assay). Once prepared, the cells were added to the test compound plate in an amount of 20000 and the plate was immediately placed in the IncuCyte and imaging started using following settings: 10× objective, 2 s exposure time in green channel, interval of 2 h, acquisition stopped after 22 h.
For analysis in IncuCyte, a Basic Analysis protocol was defined to calculate the “confluence” and “caspase” areas from the “Phase” and “green” images, respectively, as follows: (a) Confluence: Segmentation Adjustment 1, Hole Fill 0, Adjust Size −2, No filters (b) Caspase: Top-Hat segmentation, Radius 10, Threshold 0.3 GCU, Edge Split On with sensitivity 0, Hole Fill 0, Adjust Size 1, and filter on a minimum Area of 20 μm^2. The analyzer is trained on a sufficient number of positive and negative control wells, as well as compound treated wells, verifying that the “confluence” layer detects both live and dead (condensed) cells. […]

[2] = test system: MOLP-8 human multiple myeloma cell line; experiment: MOLP8 Caspase-Glo 3/7 luminescent assay; assay type: cell-based
Excerpt: as §1
The Caspase-Glo® 3/7 Assay is a luminescent assay that measures caspase-3 and -7 activities in purified enzyme preparations or cultures of adherent or suspension cells. The assay provides a proluminescent caspase-3/7 substrate, which contains the tetrapeptide sequence DEVD. This substrate is cleaved to release aminoluciferin, a substrate of luciferase used in the production of light. Addition of the single Caspase-Glo® 3/7 Reagent in an “add-mix-measure” format results in cell lysis, followed by caspase cleavage of the substrate and generation of a “glow-type” luminescent signal.
This assay uses the MOLP-8 human multiple myeloma cell line, which is sensitive to MCL-1 inhibition.
Cell cultures were maintained between 0.2 and 2.0×10^6 cells/mL. The cells were harvested by collection in 50 mL conical tubes. The cells were then pelleted at 500 g for 5 mins before removing supernatant and resuspension in fresh pre-warmed culture medium. The cells were counted and diluted as needed.
The assay reagent was prepared by transferring the buffer solution to the substrate vial and mixing. The solution may be stored for up to 1 week at 4° C. with negligible loss of signal.
Compounds were delivered in assay-ready plates (Proxiplate) and stored at −20° C.
Assays always include 1 reference compound plate containing reference compounds. The plates were spotted with 40 nL of compounds (0.5% DMSO final in cells; serial dilution; 30 μM highest conc. 1/3 dilution, 10 doses, duplicates). The compounds were used at room temperature and 4 μL of pre-warmed media was added to all wells except column 2 and 23. The negative control was prepared by adding 1% DMSO in media. The positive control was prepared by adding the appropriate positive control compound in final concentration of 60 μM in media. The plate was prepared by adding 4 μL negative control to column 23, 4 μL positive control to column 2 and 4 μL cell suspension to all wells in the plate. The plate with cells was then incubated at 37° C. for 2 hours. The assay signal reagent is the Caspase-Glo solution described above, and 8 μL was added to all wells. The plates were then sealed and measured after 30 minutes.
The activity of a test compound was calculated as percent change in apoptosis induction as follows: […]

[3] = read-out: MOLP8 Caspase 3/7 AC50 at 6 h, MOLP8 cells, 6 h
[4] = read-out: MOLP8 Caspase 3/7 AC50 at 12 h, MOLP8 cells, 12 h
[5] = read-out: MOLP8 Caspase 3/7 AC50 at 22 h, MOLP8 cells, 22 h
[6] = MOLP8 cells, 2 hours incubation; averaged over all runs on all batches; read-out: MOLP8 Caspase-Glo AC50
[7] = read-out: MOLP8 Caspase-Glo AC50; MOLP8 cells, 2 hours incubation; averaged over all runs on all batches
[8] = Homo sapiens, MOLP-8, 6 h, read-out: MOLP8 Caspase 3/7 AC50 at 6 h (μM), MOLP8 cells, 6 h
[9] = Homo sapiens, MOLP-8, 12 h, read-out: MOLP8 Caspase 3/7 AC50 at 12 h (μM), MOLP8 cells, 12 h
[10] = Homo sapiens, MOLP-8, 22 h, read-out: MOLP8 Caspase 3/7 AC50 at 22 h (μM), MOLP8 cells, 22 h

Structure (SMILES) | Ki [1] | AC50 (MOLP8 cell line; [3]) | AC50 (MOLP8 cell line; [4]) | AC50 (MOLP8 cell line; [5]) | AC50 [2, 6] | AC50 [2, 7] | AC50 (MOLP8 cell line; [8]) | AC50 (MOLP8 cell line; [9]) | AC50 (MOLP8 cell line; [10])
Cc1c2c(nn1CCN1CCOCC1)CN(C)Cc1cc(n(C)n1)CSc1cc(c3ccccc3c1)OCCCc1c(C(=O)O)n(C)c3c-2c(Cl)ccc13 (single isomer, unassigned) [Compound 13] | 0.05 nM and 0.04 nM | 0.15 µM | 0.15 µM | 0.17 µM | 75 nM | – | – | – | –
Cc1c2c(nn1CCN1CCOCC1)CN(C)Cc1cc(n(C)n1)CSc1cc(c3ccccc3c1)OCCCc1c(C(=O)O)n(C)c3c-2c(Cl)ccc13 (single isomer, unassigned) [Compound 14] | 2.85 nM and 2.53 nM | 7.67 µM | 7.16 µM | 7.33 µM | 3680 nM | – | – | – | –
Cc1nn(CC2CCOCC2)c2c1-c1c(Cl)ccc3c(c(C(=O)O)n(C)c13)CCCOc1cc(cc3ccccc13)SCc1cc(nn1C)CN(C)C2 (single isomer, unassigned) [Compound 15] | 0.09 nM and 0.03 nM | 0.23 µM | 0.23 µM | 0.19 µM | 67 nM | – | – | – | –
Cc1c2c(nn1CC1CCOCC1)CN(C)Cc1cc(n(C)n1)CSc1cc(c3ccccc3c1)OCCCc1c(C(=O)O)n(C)c3c-2c(Cl)ccc13 (single isomer, unassigned) [Compound 16] | 0.06 nM and 0.05 nM | 0.15 µM | 0.14 µM | 0.15 µM | 49 nM | – | – | – | –
Cc1c2c(nn1CC1CCOCC1)CN(C)Cc1cc(n(C)n1)CSc1cc(c3ccccc3c1)OCCCc1c(C(=O)O)n(C)c3c-2c(Cl)ccc13 (single isomer, unassigned) [Compound 17] | 0.41 nM and 0.66 nM | 1.23 µM | 1.24 µM | 1.22 µM | 564 nM | – | – | – | –
Cc1nn(CC2CCOCC2)c2c1-c1c(Cl)ccc3c(c(C(=O)O)n(C)c13)CCCOc1cc(cc3ccccc13)SCc1cc(nn1C)CN(C)C2 (single isomer, unassigned) [Compound 18] | 2.46 nM and 3.31 nM | 8.32 µM | 8.41 µM | 7.85 µM | 3760 nM | – | – | – | –
COCCn1nc(C)c2c1CN(C)Cc1cc(n(C)n1)CSc1cc(c3ccccc3c1)OCCCc1c(C(=O)O)n(C)c3c-2c(Cl)ccc13 (single isomer, unassigned) [Compound 25] | 0.04 nM | 0.09 µM | 0.1 µM | 0.11 µM | – | – | – | – | –
Cc1c2c(nn1CCCN1CCOCC1)CN(C)Cc1cc(n(C)n1)CSc1cc(c3ccccc3c1)OCCCc1c(C(=O)O)n(C)c3c-2c(Cl)ccc13 (single isomer, unassigned) [Compound 35] | 0.04 nM | 0.15 µM | 0.15 µM | 0.15 µM | – | – | – | – | –
Cc1c2c(nn1CCO)CN(C)Cc1cc(n(C)n1)CSc1cc(c3ccccc3c1)OCCCc1c(C(=O)O)n(C)c3c-2c(Cl)ccc13 (single isomer, unassigned) [Compound 37] | 0.06 nM and 0.04 nM | 0.71 µM | 0.62 µM | 0.56 µM | – | – | – | – | –
Cc1nn(CCO)c2c1-c1c(Cl)ccc3c(c(C(=O)O)n(C)c13)CCCOc1cc(cc3ccccc13)SCc1cc(nn1C)CN(C)C2 (single isomer, unassigned) [Compound 39] | 0.06 nM and 0.05 nM | 0.65 µM | 0.85 µM | 0.65 µM | – | – | – | – | –
CCn1nc2cc1CSc1cc(c3ccccc3c1)OCCCc1c(C(=O)O)n(C)c3c(c(Cl)ccc13)-c1c(nn(C)c1C)CSC2 (single isomer, unassigned) [Compound 43] | 0.04 nM | – | – | – | – | 63 nM | – | – | –
CCn1nc2cc1CSc1cc(c3ccccc3c1)OCCCc1c(C(=O)O)n(C)c3c(c(Cl)ccc13)-c1c(nn(C)c1C)CSC2 (single isomer, unassigned) [Compound 44] | 4.06 nM | – | – | – | – | 3560 nM | – | – | –
CCn1nc2cc1CSCc1nn(C)c(C)c1-c1c(Cl)ccc3c(c(C(=O)O)n(C)c13)CCCOc1cc(cc3ccccc13)SC2 [Compound 1] | 0.15 nM | – | – | – | – | – | 0.13 µM | 0.13 µM | 0.11 µM
Cc1c2c(nn1C)CSCc1cc(nn1CCN(C)C)CSc1cc(c3ccccc3c1)OCCCc1c(C(=O)O)n(C)c3c-2c(Cl)ccc13 [Compound 4] | 0.09 nM and 0.1 nM | – | – | – | – | – | 0.22 µM | 0.25 µM | 0.23 µM
Cc1c2c(nn1C)CSCc1cc(n(CCN(C)C)n1)CSc1cc(c3ccccc3c1)OCCCc1c(C(=O)O)n(C)c3c-2c(Cl)ccc13 [Compound 5] | 0.06 nM and 0.08 nM | – | – | – | – | – | 0.08 µM | 0.08 µM | 0.07 µM
Cc1c2c(nn1C)CSCc1cc(n(CCO)n1)CSc1cc(c3ccccc3c1)OCCCc1c(C(=O)O)n(C)c3c-2c(Cl)ccc13 [Compound 7] | < 0.094 nM | – | – | – | – | – | 0.47 µM | 0.45 µM | 0.46 µM
Cc1c2c(nn1C)CSCc1cc(nn1CCN1CCOCC1)CSc1cc(c3ccccc3c1)OCCCc1c(C(=O)O)n(C)c3c-2c(Cl)ccc13 [Compound 8] | 0.13 nM and 0.08 nM | – | – | – | – | – | 0.24 µM | 0.24 µM | 0.25 µM
Cc1c2c(nn1C)CSCc1cc(n(CCN3CCOCC3)n1)CSc1cc(c3ccccc3c1)OCCCc1c(C(=O)O)n(C)c3c-2c(Cl)ccc13 [Compound 9] | 0.05 nM | – | – | – | – | – | 0.1 µM | 0.097 µM | 0.1 µM
Cc1c2c(nn1C)CSCc1cc(n(CC3CCOCC3)n1)CSc1cc(c3ccccc3c1)OCCCc1c(C(=O)O)n(C)c3c-2c(Cl)ccc13 [Compound 12] | 0.05 nM and 0.08 nM | – | – | – | – | – | 0.18 µM | 0.18 µM | 0.13 µM
